Patent publication US4530932A, “4-(1H-indol-3-yl)-α-methyl-piperidine-1-ethanol derivatives” (Roussel Uclaf, priority 1982, dated 1985)
Structures can show the parent of a compound that is named as a salt. Where two headings read alike, the source gives them in different places.

Assays:
[1] = test system: α1 adrenergic receptors; assay: Affinity for α1 adrenergic receptors (3H prazosine displacement, rat brain); type: binding; details: relative to phentolamine (ARL=100×(CB/CX)), 25° C., pH 7.7
Protocol: After centrifugation at 30,000 g for 15 minutes at 0° to 4° C., the culot was suspended in 240 ml of buffer Tris HCl 50 mM (pH-7.7) and the suspension was centrifuged at 30,000 g for 20 minutes at 0° to 4° C. The new culot was suspended in 480 ml of buffer Krebs Tris HCl (pH of 7.7-50 mM) and 2 ml of the suspension in the presence of 3H prazosine at a concentration of […] alone and with increasing concentrations of the test compound or with non-radioactive phentolamine at a concentration of 10^-5 M to determine the non-specific fixation was incubated at 25° C. for 30 minutes.
The incubated suspensions were filtered through Whatman FG/C and the filtered were washed with 3 times with 5 ml of buffer Krebs Tris HCl-pH of 7.7 at 0° to 4° C. The radioactivity of the filters was measured by liquid scintillation and the affinity of the test compound for α1 adrenergic receptors was compared relative to phentolamine as the reference compound by the formula
CD=concentration of phentolamine inhibiting by 50% the specific fixation of 3H prazosine.
CX=concentration of test product inhibiting by 50% the specific fixation of 3H prazosine.

[2] = test system: cardiac rhythm troubles in guinea pigs; assay: Antiarythmic action (K-strophanthine and adrenaline induced cardiac rhythm troubles); type: in vivo, guinea pig; details: Cavia porcellus, 1 h, oral 10 mg/kg, one hour before K-strophanthine and adrenaline perfusion, read-out: Percentage of protection (lengthening of the time of appearance of cardiac rhythm troubles as compared to controls)
Protocol: Male guinea pigs weighing between 450 and 500 g were tracheotomized while anesthesized by intraperitoneal administration of […] of urethane and were subjected to artifical respiration of 40 to 50 breaths of 5 ml per minute. Needles were subcutaneously implanted to register an electrocardiogram of the guinea pigs for the signal of D II derivation. The test products were orally administered and one hour later, the jugular vein of the guinea pigs were perfused with 0.5 ml per minute of a solution of 150 γ/ml of K-strophanthine and 0.5 ml per minute of a solution of 5 γ/ml of adrenaline and the number of times of the appearance of cardiac rhythm troubles was noted. The results are expressed in percentage of protection with an oral dose of 10 mg/kg of test product that is to say the percentage of lengthening of the time of appearance of cardiac rhythm troubles as compared to the controls.

[3] = test system: mice; assay: Acute toxicity (DL0, oral); type: in vivo, mouse; design: unit not given here
[4] = target: T1, β2 -adrenergic receptors (Rattus norvegicus, UniProt P10608); assay: Affinity for β2 adrenergic receptors (3H dihydroalprenolol displacement, rat cerebellum); type: binding; details: relative to propranolol, 37° C., pH 7.7
T1 construct: cerebellums of male rats weighing an average of 150 g; from tissue; host or cells: cerebellum of male rats (membranes)
T1 sequence (P10608 whole entry): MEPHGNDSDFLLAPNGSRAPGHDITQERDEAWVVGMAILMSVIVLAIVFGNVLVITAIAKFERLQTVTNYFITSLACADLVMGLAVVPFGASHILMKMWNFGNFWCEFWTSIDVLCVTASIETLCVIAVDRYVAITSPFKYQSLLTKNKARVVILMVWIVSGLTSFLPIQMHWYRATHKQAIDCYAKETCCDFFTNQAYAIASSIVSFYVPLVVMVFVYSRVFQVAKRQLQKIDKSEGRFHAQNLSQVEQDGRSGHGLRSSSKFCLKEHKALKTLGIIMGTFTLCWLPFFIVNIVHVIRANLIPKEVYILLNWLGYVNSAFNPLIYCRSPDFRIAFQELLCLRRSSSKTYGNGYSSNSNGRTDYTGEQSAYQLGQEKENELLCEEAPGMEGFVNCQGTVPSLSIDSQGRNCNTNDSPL
Protocol: The technique was inspired by that of Mohler et al [Science, Vol. 198 (1977), p. 849-851] and the cerebellums of male rats weighing an average of 150 g were homogenized in 90 ml of 0.32M sucrose. After centrifugation of the homogenized mixture at 1000 g for 20 minutes at 0° C., the surnageant was centrifuged at 30,000 g for 15 minutes at 0° to 4° C. The culot was suspended in 120 ml of buffer Tris HCl (50 mM-pH of 7.7) and the suspension was centrifuged at 30,000 g for 15 minutes at 0° to 4° C. The resulting culot was suspended in 480 ml of buffer Krebs Tris HCl with a pH of 7.7 and 2 ml of the suspension was incubated at 37° C. for 10 minutes in the presence of 3H dihydroalprenolol at a concentration of 10^-9 M alone and with increasing concentrations of the test compound or with 10^-5 M of non-radioactive propranolol to determine the non-specific fixation.
The incubated suspensions were filtered through Whatman FG/C filter and the filters were rinsed 3 times with 5 ml of buffer Krebs Tris HCl with a pH of 7.7 at 0° C. The radioactivity of the filters was measured by liquid scintillation and the affinity of the test compounds for β2 -adrenergic receptors relative to propranolol as a standard was determined similar as to Test D. The results are reported in Table VII.

[5] = test system: Rat arteries (arterial contractions, entry of calcium ions into the cells of smooth muscles); assay: In vitro anticalcic activity (inhibition of potassium-depolarized, calcium-induced contractions of isolated rat arteries); type: cell-based; details: dose inhibiting by 50% the contractions caused by potassium ions (100 mM), 37° C., read-out: CI50 (the source's name)
Protocol: Rat arteries decoupled in a spiral were attached to a tension collector and were maintained in tanks containing 2.5 ml of Krebs-sodium bicarbonate buffer (NaCl: 120.8 mM, KCl: 5.9 mM, MgCl2 : 1.2 mM, NaH2 PO4 : 1.2 mM, NaHCO3 : 15.5 mM, glucose: 12.6 mM), at 37° C. covered with a 95%-5% oxygen-carbon dioxide mixture. The preparations were depolarized with a buffered solution containing 100 mM of potassium ions (NaCl: 26.7 mM, KCl: 100 mM, MgCl2 : 1.2 mM, NaH2 PO4 : 1.2 mM, NaHCO3 : 15.5 mM, glucose 12.6 mM).
A volume of 25 μl of calcium chloride was added to the mixture in a manner to obtain a range of increasing concentrations of calcium ions from 0.1 to 3.0 mM and the contractions of the artery were measured to obtain a control. The operation with range of calcium ions was repeated every 15 minutes and the preparation was washed 4 times after each range. When a stable response was obtained, the operation with the range of calcium ions was effected in the presence of varying concentrations of test compounds until a stable response was obtained.
The arterial contractions depend on the entry of calcium ions into the cells of smooth muscles and are provoked by depolarization of smooth muscles by potassium ions and by action of noradrenaline freed by presynapthic level. By recommencing the operation with denerved arteries by the action of 6-hydroxy-dopamine, the specific action due to noradrenaline is suppressed.

[6] = target: T2, β1 adrenergic receptors (Rattus norvegicus, UniProt P18090); assay: Affinity for β1 adrenergic receptors (3H dihydroalprenolol displacement, rat brain cortex); type: binding; details: relative to propranolol, 37° C., pH 7.7
T2 construct: 10 cortexes removed from the brains of male rats weighing an average of 150 g; from tissue; host or cells: cerebral cortex of male rats (membranes)
T2 sequence (P18090 whole entry): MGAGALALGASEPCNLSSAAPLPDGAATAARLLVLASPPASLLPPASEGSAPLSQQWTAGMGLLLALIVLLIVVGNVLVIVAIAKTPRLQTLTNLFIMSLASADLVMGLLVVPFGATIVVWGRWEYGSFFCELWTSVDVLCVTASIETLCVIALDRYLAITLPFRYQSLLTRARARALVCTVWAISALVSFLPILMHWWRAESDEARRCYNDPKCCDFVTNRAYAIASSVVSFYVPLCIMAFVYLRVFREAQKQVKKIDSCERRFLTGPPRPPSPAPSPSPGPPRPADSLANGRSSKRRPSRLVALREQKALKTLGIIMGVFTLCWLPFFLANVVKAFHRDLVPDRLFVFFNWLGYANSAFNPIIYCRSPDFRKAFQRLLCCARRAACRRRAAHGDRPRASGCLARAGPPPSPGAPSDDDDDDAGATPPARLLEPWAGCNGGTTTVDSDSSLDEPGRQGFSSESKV
Protocol: The test was inspired by that of Mohler et al [Science, Vol. 198 (1977), p. 849-851] and 10 cortexes removed from the brains of male rats weighing an average of 150 g were homogenized in 90 ml of 0.32M of sucrose. After centrifuging the homogenized mixture at 1000 g for 20 minutes at 0° C., the surnageant was centrifuged at 30,000 g for 15 minutes at 0° to 4° C. The culot was suspended in 120 ml of buffer Tris HCl 50 mM with a pH of 7.7 and was centrifuged at 30,000 g for 15 minutes at 0° to 4° C. The resulting culot was suspended in 480 ml of buffer Krebs Tris HCl (50 mM-pH of 7.7) and 2 ml of the suspension in the presence of 3H dihydroalprenolol at a concentration of 10^-9 M alone and with increasing concentrations of the test compound or with non-radioactive propranolol at a concentration of 10^-5 M to determine the non-specific fixation was incubated at 37° C. for 10 minutes.
The incubated suspensions were filtered through Whatman GF/C and the filters were washed 3 times with 5 ml of buffer Krebs Tris HCl (pH-7.7) at 0° C. The radioactivity of the filters was measured by liquid scintillation and the affinity of the test compounds for β1 -adrenergic receptors was compared using propranolol as a standard as in Test D. The results are reported in Table VI.

[7] = test system: carotidien arterial pressure in rats; assay: Hypotensive activity (carotidien arterial pressure in anesthesized rats); type: in vivo, rat (Wistar); details: rat, intravenous
Protocol: The hypotensive activity was studied on male rats of the Wistar strain weighing about 300 g and anesthesized with 50 mg/kg of nembutal intraveinously. The test products were administered intraveinously by the jugular vein and the carotidien arterial pressure was measured before and after administration of the test compounds. The variations expressed in percentage of arterial pressure after administration with respect to the initial pressure is reported in Table IV.

[8] = 1 min, 1 minute, read-out: % Variation of arterial pressure after administration, 1 minute
[9] = 5 min, 5 minutes, read-out: % Variation of arterial pressure after administration, 5 minutes
[10] = 10 min, 10 minutes, read-out: % Variation of arterial pressure after administration, 10 minutes
[11] = 0.5 h, 30 minutes, read-out: % Variation of arterial pressure after administration, 30 minutes

SMILES | % Arl (relative affinity for α1 adrenergic receptors) [1] [%] | change in vivo at 10 mg/kg [2] [%] | DL0 (maximum dose which did not cause any deaths after 8 days) [3] | ARL in % (relative affinity for β2 adrenergic receptors) [4] [%] | IC50 [5] [µM] | ARL in % (relative affinity for β1 adrenergic receptors) [6] [%] | change in vivo at 1 mg/kg [7, 8] [%] | change in vivo at 1 mg/kg [7, 9] [%] | change in vivo at 1 mg/kg [7, 10] [%] | change in vivo at 1 mg/kg [7, 11] [%]
C=CCOc1ccccc1OCC(O)CN1CCC(c2c[nH]c3ccccc23)CC1 (stereo not drawn) [Example 1, 4-(1H-indol-3-yl)-α-[{2-(prop-2-enyloxy)-phenoxy}-methyl]-piperidine-1-ethanol hydrochloride] | 247 | 63 | 100 | 10.5 | 4 | 7.3 |  |  |  | 
N#Cc1ccccc1OCC(O)CN1CCC(c2c[nH]c3ccccc23)CC1 (stereo not drawn) [Example 4, 4-(1H--indol-3-yl)-α-[2-cyanophenoxymethyl]-piperidine-1-ethanol hydrochloride] | 145 | 148 | > 100 | 1.1 | 3.5 | 13.3 | -24 | -21 | -22 | -26
COC(=O)c1ccccc1OCC(O)CN1CCC(c2c[nH]c3ccccc23)CC1 (stereo not drawn) [Example 6, 4-(1H--indol-3-yl)-α-[2-methoxycarbonyl-phenoxymethyl]-piperidine-1-ethanol hydrochloride] | 253 | 37 | 80 | 3.5 | 3 | 1.3 | -21 | -13 | -13 | 0
C=CCc1ccccc1OCC(O)CN1CCC(c2c[nH]c3ccccc23)CC1 (stereo not drawn) [Example 7, 4-(1H--indol-3-yl)-α-[2-prop-2-enyl)-phenoxymethyl]-piperidine-1-ethanol hydrochloride] | 100 | 50 | > 200 | 10 | 0.32 | 3.7 |  |  |  | 
OC(COc1ccccc1C1CCCCC1)CN1CCC(c2c[nH]c3ccccc23)CC1 (stereo not drawn) [Example 15, 4-(1H--indol-3-yl)-α-[2-cyclohexyl-phenoxymethyl]-piperidine-1-ethanol hydrochloride] |  |  | > 100 | 5.4 | 5 |  |  |  |  | 
C#CCc1ccccc1OCC(O)CN1CCC(c2c[nH]c3ccccc23)CC1 (stereo not drawn) [Example 16, 4-(1H--indol-3-yl)-α-[2-(prop-2-ynyl)-phenoxymethyl]-piperidine-1-ethanol hydrochloride] | 321 | 71 | > 100 | 11 | 1.6 | 5.8 |  |  |  | 
CC(=O)c1ccccc1OCC(O)CN1CCC(c2c[nH]c3ccccc23)CC1 (stereo not drawn) [Example 17, 4-(1H--indol-3-yl)-α-[2-(acetyl-phenoxymethyl]-piperidine-1-ethanol hydrochloride] | 159 | 142 | > 100 | 3.3 | 6 | 1.2 | -17 | -5 | -18 | -6
